# Reference: patent publication US20240150294A1, “ESTROGEN RECEPTOR ALPHA ANTAGONISTS AND USES THEREOF” (The University of Chicago, priority 2021, published 2024)
# Key:
# Type in all cases: cell-based
# ERα = target: T1, ERα (Homo sapiens, UniProt P03372); test: Transcriptional reporter gene assay (estrogen response element-GFP) in MCF7 cells; details: ERE-controlled green fluorescent protein, reduction in fluorescence
# T1 construct: endogenous in cells; host or cells: MCF7
# T1 sequence (P03372 1-595): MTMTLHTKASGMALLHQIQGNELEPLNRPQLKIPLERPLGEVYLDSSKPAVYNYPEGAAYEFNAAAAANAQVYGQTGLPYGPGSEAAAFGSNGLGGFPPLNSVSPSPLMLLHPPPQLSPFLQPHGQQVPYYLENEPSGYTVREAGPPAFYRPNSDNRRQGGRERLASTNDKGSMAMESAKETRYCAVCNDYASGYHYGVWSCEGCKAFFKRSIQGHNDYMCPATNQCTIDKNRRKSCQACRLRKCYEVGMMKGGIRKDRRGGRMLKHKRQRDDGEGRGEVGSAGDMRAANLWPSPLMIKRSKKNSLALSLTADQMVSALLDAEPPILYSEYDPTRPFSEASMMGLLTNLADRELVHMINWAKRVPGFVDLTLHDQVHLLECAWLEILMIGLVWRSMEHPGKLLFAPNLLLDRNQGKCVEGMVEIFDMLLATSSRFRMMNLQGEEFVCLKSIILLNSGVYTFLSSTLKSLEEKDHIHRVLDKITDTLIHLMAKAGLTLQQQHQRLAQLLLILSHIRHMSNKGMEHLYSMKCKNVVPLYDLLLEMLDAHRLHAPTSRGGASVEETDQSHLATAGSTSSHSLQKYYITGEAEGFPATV
# Protocol: The reduction in fluorescence was measured and the IC50 value (nM) was determined for various compounds of formula (I) in comparison to known antagonists.
# MCF7 breast cancer cells [1] = test: Cellular proliferation of MCF7 breast cancer cells, 150 hours; details: 1 nM E2 + 1 μM compound, serum-starved 48 hours
# Protocol: The abilities of exemplary compounds of formula (I) to inhibit the cellular proliferation of MCF7 breast cancer cells were measured. Cells were serum-starved for 48 hours before they were treated with either vehicle (DMSO), 1 nM hormone (estradiol [E2]), or 1 nM E2+1 μM compound in triplicate for 150 hours.
# halo-ERα = test: ERα cellular stability, live-cell halo-ERα assay in T47D breast cancer cells; details: 0 to 10 μM, 24 hours
# Protocol: T47D breast cancer cell lines were generated with stable Tet-ON wild type (WT), Y537S mutation, or D538G halo-ERα mutation and enriched through flow sorting. Cells were cultured for 48 hours in media supplemented with charcoal-stripped fetal bovine serum (FBS) in puromycin. Subsequently, 1 μg/mL doxycycline was added to induce expression and 1 μM G618 antibody was added to follow the expression of the halo-tagged proteins. Cells were then treated with increasing concentrations of a compound of interest between 0 and 10 μM for 24 hours. After treatment, cells were imaged using an INUCYTE™ S3 (Essen BioScience, Ann Arbor, MI). ERα degradation was quantified by using the red channel integrated intensity per image normalized to phase channel confluence area.
# Tissue specific activities often correlate with a molecule's influence on ERα levels.
# MCF7 breast cancer cells [2] = test: Crystal violet endpoint assay of MCF7 cellular viability; details: 500 nM, in the presence of 1 nM E2, 1 week
# Source text: A crystal violet endpoint assay is useful for obtaining quantitative information about the relative density of cells adhering to multi-well cluster dishes. The crystal violet dye stains DNA. Upon solubilization, the amount of dye taken up by the monolayer can be quantified in a spectrophotometer or plate reader when the absorbance of each well is read at 570 nm. A crystal violet assay kit to measure cell viability is commercially available (e.g., Abcam, Cambridge, MA). All antagonist treatments were performed in the presence of 1 nM hormone (E2) for 1 week.
Compound,IC50 (ERα),anti-proliferative activities (fold-change in cell count versus starting cell count) (MCF7 breast cancer cells [1]),also measured
CC1CCN(CCOc2ccc(C3c4ccc(O)cc4CC4(CC4)N3C(=O)c3ccccc3)cc2)C1 (mixture of isomers) [Compound 16],3.85 nM,–,–
CC1Cc2cc(O)ccc2C(c2ccc(OCC3CCN(CCCF)C3)cc2)N1C(=O)c1ccccc1 [35(R)],–,modestly reduced the anti-proliferative activities compared compound 29,–
CC1Cc2cc(O)ccc2C(c2ccc(OC[C@H]3CCN(CCCF)C3)cc2)N1C(=O)c1ccccc1 (stereo partly drawn) [35(S)],–,modestly reduced the anti-proliferative activities compared compound 29,–
CCN1CC(Oc2ccc(C3c4ccc(O)cc4CC4(CC4)N3C(=O)c3ccccc3)cc2)C1 (stereo not drawn) [Compound 1],358 nM,–,influence on ERα levels (SERM-like / SERD-like profile) (halo-ERα): weak SERD-like profile
CCCN1CC(Oc2ccc(C3c4ccc(O)cc4CC4(CC4)N3C(=O)c3ccccc3)cc2)C1 (stereo not drawn) [Compound 2],130 nM,–,–
CCCN1CC(COc2ccc(C3c4ccc(O)cc4CC4(CC4)N3C(=O)c3ccccc3)cc2)C1 (stereo not drawn) [Compound 4],–,improved anti-proliferative activities compared to an ethylazetidine,–
O=C(c1ccccc1)N1C(c2ccc(OCCN3CCCCCC3)cc2)c2ccc(O)cc2CC12CC2 (stereo not drawn) [Compound 5],49.4 nM,–,–
O=C(c1ccccc1)N1C(c2ccc(OCCN3CCCCC3)cc2)c2ccc(O)cc2CC12CC2 (stereo not drawn) [Compound 6],23.4 nM,–,–
CCN1CCC(Oc2ccc(C3c4ccc(O)cc4CC4(CC4)N3C(=O)c3ccccc3)cc2)C1 (stereo not drawn) [Compound 12],58.8 nM,–,–
CCN1CCC(CCOc2ccc(C3c4ccc(O)cc4CC4(CC4)N3C(=O)c3ccccc3)cc2)C1 (stereo not drawn) [Compound 13],21 nM,–,induction of apoptosis (cellular viability) (MCF7 breast cancer cells [2]): appear to induce apoptosis
CCCN1CCC(COc2ccc(C3c4ccc(O)cc4CC4(CC4)N3C(=O)c3ccccc3)cc2)C1 (stereo not drawn) [Compound 14],19 nM,–,induction of apoptosis (cellular viability) (MCF7 breast cancer cells [2]): appear to induce apoptosis
C[C@H]1CCN(CCOc2ccc(C3c4ccc(O)cc4CC4(CC4)N3C(=O)c3ccccc3)cc2)C1 (stereo partly drawn) [Compound 15],4.8 nM,–,–
CN(C)CCOc1ccc(C2c3ccc(O)cc3CC3(CC3)N2C(=O)c2ccccc2)cc1 (stereo not drawn) [Compound 19],744 nM,–,–
CNCCOc1ccc(C2c3ccc(O)cc3CC3(CC3)N2C(=O)c2ccccc2)cc1 (stereo not drawn) [Compound 20],500 nM,–,–
CCNCCOc1ccc(C2c3ccc(O)cc3CC3(CC3)N2C(=O)c2ccccc2)cc1 (stereo not drawn) [Compound 21],222 nM,–,–
CCCCN1CCC(COc2ccc(C3c4ccc(O)cc4CC4(CC4)N3C(=O)c3ccccc3)cc2)C1 (stereo not drawn) [Compound 22],–,did not enhance anti-proliferative activities compared to compound 14,–
CCCCCN1CCC(COc2ccc(C3c4ccc(O)cc4CC4(CC4)N3C(=O)c3ccccc3)cc2)C1 (stereo not drawn) [Compound 23],–,did not enhance anti-proliferative activities compared to compound 14,–
CCCN1CCC(CCc2ccc(C3c4ccc(O)cc4CC4(CC4)N3C(=O)c3ccccc3)cc2)C1 (stereo not drawn) [Compound 24],–,reduced anti-proliferative activities compared to compound 14,–
O=C(c1ccccc1)N1C(c2ccc(CCC3CCN(CCCF)C3)cc2)c2ccc(O)cc2CC12CC2 (stereo not drawn) [Compound 25],–,reduced anti-proliferative activities compared to compound 14,–
CCCN1CCC(CNc2ccc(C3c4ccc(O)cc4CC4(CC4)N3C(=O)c3ccccc3)cc2)C1 (stereo not drawn) [Compound 26],–,reduced anti-proliferative activities compared to compound 14,–
CCCN1CCC(CSc2ccc(C3c4ccc(O)cc4CC4(CC4)N3C(=O)c3ccccc3)cc2)C1 (stereo not drawn) [Compound 27],–,did not show an appreciable difference in anti-proliferative activities compared to compound 14,–
O=C(c1ccccc1)N1C(c2ccc(OCC3CCN(CCCF)C3)cc2)c2ccc(O)cc2CC12CC2 (stereo not drawn) [Compound 29],–,enhanced anti-proliferative activities,–
O=C(c1ccccc1)N1C(c2ccc(OCC3CCN(CCCF)C3)cc2)c2ccccc2CC12CC2 (stereo not drawn) [Compound 34],–,ablated anti-proliferative activities,–
"CC1=C(c2ccc(O)cc2)[C@H](c2ccc(OCCN3CC[C@@H](C)C3)cc2)Oc2cc(O)ccc21 [OP1074, reference compound]",0.17 nM,–,–
